Data taken from PubChem BioAssay (NCI).
“And” between values parts separate entries of the source, which are not always exact repeats. Equal entries are not always repeated.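 Test compounds were applied to cells in 96-well plates for 48 hours at 5 doses. GI50 marks 50% less growth. At the TGI there is no net growth.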

Legend:
Assay in all cases: growth of human tumour cells (NCI), 48 h
SW-620 colon = tested on: SW-620 colon
SF-295 CNS = tested on: SF-295 CNS
NCI-H226 lung = tested on: NCI-H226 lung
HL-60(TB) leukemia = tested on: HL-60(TB) leukemia
UACC-257 melanoma = tested on: UACC-257 melanoma
MCF7 breast = tested on: MCF7 breast
NCI-H522 lung = tested on: NCI-H522 lung
PC-3 prostate = tested on: PC-3 prostate
UO-31 renal = tested on: UO-31 renal
HCC-2998 colon = tested on: HCC-2998 colon

Row | Structure (SMILES) | TGI (SW-620 colon) | TGI (SF-295 CNS) | TGI (NCI-H226 lung) | TGI (HL-60(TB) leukemia) | TGI (UACC-257 melanoma) | TGI (MCF7 breast) | TGI (NCI-H522 lung) | TGI (PC-3 prostate) | TGI (UO-31 renal) | TGI (HCC-2998 colon) | GI50 (SW-620 colon) | GI50 (SF-295 CNS) | GI50 (NCI-H226 lung) | GI50 (HL-60(TB) leukemia) | GI50 (UACC-257 melanoma) | GI50 (MCF7 breast) | GI50 (NCI-H522 lung) | GI50 (PC-3 prostate) | GI50 (UO-31 renal) | GI50 (HCC-2998 colon)
1 | O=C1/C(=C/c2ccc(Cl)c(Cl)c2)CNC/C1=C\c1ccc(Cl)c(Cl)c1 | 11.9 µM | 76.6 µM | 39.9 µM | > 64.2 µM | 72.8 µM | 50 µM | 26.7 µM | 47.7 µM | 32.2 µM | 21.7 µM | – | – | – | – | – | – | – | – | – | –
2 | CCCC(C)c1c(Cl)nc(Cl)nc1Cl (configuration not stated) | > 100 µM | 37 µM | 18.7 µM | > 100 µM | 26.2 µM | 26.3 µM | 5.32 µM | 46 µM | 34.7 µM | 29.9 µM | – | – | – | – | – | – | – | – | – | –
3 | Nc1nccc2c1ccn2-c1cccc(NC(=O)c2ccc(N3CCOCC3)c(C(F)(F)F)c2)c1 | > 50 µM | 1.85 µM | 18.1 µM | 7.83 µM | 31.1 µM | > 18.5 µM | 2.45 µM | 15 µM | 14 µM | > 44.5 µM | 0.49 µM | 0.371 µM | 1.74 µM | 1.09 µM | 2.08 µM | 0.181 µM | 0.288 µM | 0.565 µM | 1.2 µM | 1.63 µM
4 | O=C(Cn1c(C(=O)c2ccc(Cl)cc2)nc(-c2ccccc2)c1-c1ccccc1)c1ccc(Cl)cc1 | > 100 µM | > 100 µM | > 100 µM | > 100 µM | > 100 µM | > 100 µM | > 100 µM | > 100 µM | > 100 µM | > 100 µM | > 100 µM | > 100 µM | > 100 µM | > 100 µM | > 100 µM | > 100 µM | > 100 µM | > 100 µM | > 100 µM | > 100 µM
5 | CCCCCCCCNC(C)C(O)c1ccc(SC(C)C)cc1 (configuration not stated) | 3.29 µM | 3.2 µM | 3.85 µM | 4.07 µM | – | 3.32 µM | 2.95 µM | 3.02 µM | 3.32 µM | 3.02 µM | 1.74 µM | 1.68 µM | 1.81 µM | 2.2 µM | – | 1.8 µM | 1.43 µM | 1.58 µM | 1.77 µM | 1.58 µM
6 | O=c1c2c(=NCCN3CCCC3)cc3c(=O)n(CCCN4CCOCC4)c(=O)c4ccc(c(O)n1CCCN1CCOCC1)c2c4-3 | 1.07 µM | 0.84 µM | 0.83 µM | 1.43 µM | 3.76 µM | 1.13 µM | 0.438 µM | 0.638 µM | – | 0.563 µM | < 0.0192 µM | 0.231 µM | 0.155 µM | 0.338 µM | 0.707 µM | 0.0752 µM | 0.102 µM | 0.0919 µM | – | 0.0603 µM
7 | Cc1ccc(-c2cc(-c3ccc(C)cc3)nc(N3CCN(CCNc4ccnc5cc(Cl)ccc45)CC3)n2)cc1 | 6.32 µM | 15.4 µM | 18.1 µM | 11.6 µM | 6.88 µM | 13.4 µM | 22 µM | 30.9 µM | 5.53 µM | 16.2 µM | 1.82 µM | 5.27 µM | 5.13 µM | 2.42 µM | 1.91 µM | 2.11 µM | 5.65 µM | 3.14 µM | 1.16 µM | 4.82 µM
8 | Fc1cccc(Cl)c1Cn1c(-c2c(F)cccc2Cl)nc2ccccc21 | 38 µM | 46.8 µM | 57.8 µM | 74.6 µM | 28.6 µM | 57.8 µM | 44.5 µM | 55.3 µM | 28.4 µM | 9.87 µM | 16.8 µM | 16.8 µM | 22 µM | 3.86 µM | 12.9 µM | 20 µM | 13.3 µM | 14.7 µM | 12.4 µM | 2.31 µM
9 | CC[C@H]1CN(C)[C@H]2Cc3c([nH]c4ccccc34)C(=O)C[C@H]1C2C(=O)OC (some centres not stated) | > 100 µM | > 100 µM | > 100 µM | > 100 µM | > 100 µM | > 100 µM | > 100 µM | > 100 µM | > 100 µM | > 100 µM | – | – | – | – | – | – | – | – | – | –
10 | O=C1/C(=C/c2ccc(Cl)cc2)CCC1CN1CCOCC1 (configuration not stated) | 6.71 µM | 38.1 µM | 42.3 µM | 3.8 µM | 21.8 µM | 21 µM | 5.15 µM | 18.5 µM | 22.4 µM | 23 µM | – | – | – | – | – | – | – | – | – | –
11 | O=C1C(Br)=C(Br)C(=O)c2ccccc21 | 29.5 µM and 8.64 µM | > 100 µM and 28.6 µM | 31.9 µM and 12.2 µM | 15.6 µM | 32.6 µM and 16.7 µM | > 100 µM | 29.9 µM and 15.5 µM | 31.7 µM | 26.7 µM and 14.7 µM | 46.3 µM and 34.5 µM | 16 µM and 2.28 µM | 91.1 µM and 14.6 µM | 15.5 µM and 4.52 µM | – | 18.2 µM and 8.21 µM | – | 16.3 µM and 3.77 µM | – | 13.6 µM and 5.55 µM | –
12 | CC[C@H](C)[C@H](NC(=O)NC(C)(C)C)C(=O)N(C)[C@H](C[C@@H](OC(C)=O)c1nc(C(=O)N[C@@H](Cc2ccccc2)C[C@H](C)C(=O)OC)cs1)C(C)C | > 25 µM | 1.83 µM | > 25 µM | 1.56 µM | > 25 µM | > 25 µM | 0.765 µM | > 25 µM | > 25 µM | > 25 µM | 0.646 µM | 0.485 µM | 1.95 µM | 0.374 µM | 4.67 µM | 0.123 µM | 0.107 µM | 0.924 µM | 1.26 µM | 0.507 µM
13 | C=C(C)[C@@H]1CC[C@]2(C(=O)O)CC[C@]3(C)[C@H](CC[C@@H]4[C@@]5(C)C/C(=C/c6cccc(I)c6)C(=O)C(C)(C)[C@@H]5CC[C@]43C)[C@@H]12 | 4.58 µM | 12.6 µM | 10.1 µM | 8.58 µM | 8.23 µM | 10.5 µM | 6.94 µM | 10.6 µM | 5.17 µM | 9.69 µM | 1.95 µM | 2.91 µM | 2.64 µM | 2.6 µM | 2.51 µM | 2.64 µM | 2.1 µM | 2.2 µM | 1.72 µM | 2.69 µM
14 | Nc1nc(-c2ccc(Cl)cc2)cc(-c2ccc(Cl)cc2)c1-c1nc2ccccc2o1 | 33.3 µM | 40.3 µM | 34.9 µM | 37.2 µM | 37.8 µM | 35.7 µM | 30.5 µM | 27.1 µM | 29.9 µM | 33.3 µM | 17.5 µM | 21.7 µM | 19.1 µM | 17.9 µM | 18.4 µM | 10.6 µM | 15 µM | 13.2 µM | 14.8 µM | 16.9 µM
